Structures can show the parent of a compound that is named as a salt. Where two headings read alike, the source gives them in different places.
Assays:
[1] = molecular target: T1, TLR8 (Homo sapiens, UniProt Q9NR97); assay: In vitro human TLR8 binding reporter assay (HEK-Blue, NF-kB/AP1-inducible SEAP); assay type: cell-based; conditions: read-out: TLR8 Agonist EC50
T1 construct: human HEK-Blue cells co-expressing a TLR7 or TLR8 gene
T1 sequence (Q9NR97 27-1041): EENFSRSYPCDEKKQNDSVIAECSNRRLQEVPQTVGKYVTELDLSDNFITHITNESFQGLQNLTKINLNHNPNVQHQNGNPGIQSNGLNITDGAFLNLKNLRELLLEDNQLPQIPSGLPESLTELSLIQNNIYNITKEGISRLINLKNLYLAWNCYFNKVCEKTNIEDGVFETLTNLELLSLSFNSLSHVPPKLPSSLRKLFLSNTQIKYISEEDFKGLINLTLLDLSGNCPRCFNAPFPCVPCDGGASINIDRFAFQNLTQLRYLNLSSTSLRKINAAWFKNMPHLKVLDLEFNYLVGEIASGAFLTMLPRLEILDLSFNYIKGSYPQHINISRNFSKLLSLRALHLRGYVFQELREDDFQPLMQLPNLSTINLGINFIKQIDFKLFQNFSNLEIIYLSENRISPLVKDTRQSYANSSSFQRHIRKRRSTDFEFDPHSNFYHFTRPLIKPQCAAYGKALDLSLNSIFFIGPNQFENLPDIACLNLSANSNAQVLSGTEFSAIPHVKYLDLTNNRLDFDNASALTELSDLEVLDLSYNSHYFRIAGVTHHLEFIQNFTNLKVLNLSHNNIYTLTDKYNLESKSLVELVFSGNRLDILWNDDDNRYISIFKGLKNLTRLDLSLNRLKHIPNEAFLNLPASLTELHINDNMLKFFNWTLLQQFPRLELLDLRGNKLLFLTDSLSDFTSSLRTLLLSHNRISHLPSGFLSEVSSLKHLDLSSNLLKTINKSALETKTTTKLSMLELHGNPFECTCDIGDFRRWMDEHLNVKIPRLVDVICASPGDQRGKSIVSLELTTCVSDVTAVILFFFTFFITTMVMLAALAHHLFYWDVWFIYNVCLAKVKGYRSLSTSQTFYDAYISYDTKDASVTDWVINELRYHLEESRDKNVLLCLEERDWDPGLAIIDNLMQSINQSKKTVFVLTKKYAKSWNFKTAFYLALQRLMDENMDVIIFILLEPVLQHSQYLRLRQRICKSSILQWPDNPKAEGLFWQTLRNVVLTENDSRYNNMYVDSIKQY
How it was run: (§1)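 HEK-Blue cells expressing human TLR7 or TLR8 with NF-kB/AP1-inducible SEAP reporter, plated 24 h, then compound-treated 18 h at 37° C, 5% CO2. EC50 normalized to 100% Ymax set by 50 μM reference standard.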

[2] = molecular target: T2, TLR7 (Homo sapiens, UniProt Q9NYK1); assay: In vitro human TLR7 binding reporter assay (HEK-Blue, NF-kB/AP1-inducible SEAP); assay type: cell-based; conditions: read-out: TLR7 Agonist EC50
T2 construct: human HEK-Blue cells co-expressing a TLR7 or TLR8 gene
T2 sequence (Q9NYK1 27-1049): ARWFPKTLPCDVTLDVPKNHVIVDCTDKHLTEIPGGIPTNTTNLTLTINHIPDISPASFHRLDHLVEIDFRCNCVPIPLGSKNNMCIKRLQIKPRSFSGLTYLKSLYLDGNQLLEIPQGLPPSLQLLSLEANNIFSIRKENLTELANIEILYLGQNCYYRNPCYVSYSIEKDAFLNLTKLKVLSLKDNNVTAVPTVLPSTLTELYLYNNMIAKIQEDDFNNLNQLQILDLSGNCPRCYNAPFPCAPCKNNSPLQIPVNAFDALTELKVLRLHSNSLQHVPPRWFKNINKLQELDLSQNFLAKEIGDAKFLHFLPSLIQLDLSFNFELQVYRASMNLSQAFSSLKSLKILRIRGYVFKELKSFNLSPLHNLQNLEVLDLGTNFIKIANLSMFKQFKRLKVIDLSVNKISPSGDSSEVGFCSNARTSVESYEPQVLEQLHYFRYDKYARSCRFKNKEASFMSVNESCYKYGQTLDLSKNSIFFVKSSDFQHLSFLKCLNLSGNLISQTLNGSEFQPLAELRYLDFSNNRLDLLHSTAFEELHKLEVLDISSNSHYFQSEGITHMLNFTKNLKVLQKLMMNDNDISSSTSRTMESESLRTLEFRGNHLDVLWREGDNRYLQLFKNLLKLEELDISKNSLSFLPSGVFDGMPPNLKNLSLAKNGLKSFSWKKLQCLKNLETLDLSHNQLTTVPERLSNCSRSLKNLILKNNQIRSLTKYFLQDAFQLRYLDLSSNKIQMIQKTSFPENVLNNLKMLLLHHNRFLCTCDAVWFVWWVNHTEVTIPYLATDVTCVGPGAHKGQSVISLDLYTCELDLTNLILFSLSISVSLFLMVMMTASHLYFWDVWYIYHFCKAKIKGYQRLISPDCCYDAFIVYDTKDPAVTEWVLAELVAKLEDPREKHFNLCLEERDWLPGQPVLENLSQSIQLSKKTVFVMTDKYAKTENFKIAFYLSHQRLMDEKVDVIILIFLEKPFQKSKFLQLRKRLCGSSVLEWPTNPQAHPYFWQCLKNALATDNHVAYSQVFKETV
How it was run: as §1

[3] = test system: THP-1 cells; assay: Measurement of IL-1β production, hTRF protocol (second alternative procedure), THP-1 cells; assay type: cell-based, human; conditions: read-out: NLRP3 hILIB EC50
How it was run: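 Compounds, dilution series starting at a final 10 μM, were incubated 2 hours at 37° C with PMA-differentiated THP-1 cells (50 ng/ml overnight; 50,000 cells/well, 2% FBS RPMI). Released IL-1β quantified in supernatant by hTRF kit with 1:40 antibody dilution, 4° C overnight, 665/615 nm ratio.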

[4] = Homo sapiens, THP-1, IL-1β production, human
[5] = Homo sapiens, THP-1, IL-1β production, human cells

SMILES	EC50 ([1]; activity range class)	EC50 ([2]; activity range class)	EC50 [3, 4]	EC50 ([1]; activity range)	EC50 ([2]; activity range)	EC50 [3, 5]	EC50 ([3]; IL-1β production, human cells)
N#CC[C@@H](O)Cn1cc2c(N)nc3cc(-c4cc[nH]n4)ccc3c2n1 [Example 381]	> 100 µM	> 100 µM	0.74 µM				
Nc1nc2cc(-c3cc[nH]n3)ccc2c2nn(C[C@@H]3C[C@H](O)CN3)cc12 [Example 382]	> 100 µM	> 100 µM	5.39 µM				
Nc1nc2cc(-c3cc[nH]n3)ccc2c2nn(CCN3CCCC3=O)cc12 [Example 383]	> 100 µM	> 100 µM	1.38 µM				
Nc1nc2cc(-c3cc[nH]n3)ccc2c2nn(C[C@@H]3CCC(=O)N3)cc12 [Example 384]	> 100 µM	> 100 µM	0.88 µM				
Nc1nc2cc(-c3cc[nH]n3)ccc2c2nn(C[C@H]3CCC(=O)N3)cc12 [Example 385]	> 100 µM	> 100 µM	2.51 µM				
Nc1nc2cc(-c3cc[nH]n3)ccc2c2nn(CC3CC3(F)F)cc12 (stereo not drawn) [Example 386]	> 100 µM	> 100 µM	0.21 µM				
CS(=O)(=O)CCCn1cc2c(N)nc3cc(-n4cccn4)ccc3c2n1 [Example 387]	> 100 µM	> 100 µM	2.3 µM				
CO[C@@H](CO)Cn1cc2c(N)nc3cc(-n4cccn4)ccc3c2n1 [Example 388]	> 100 µM	> 100 µM	0.31 µM				
Nc1nc2cc(-n3cccn3)ccc2c2nn(C[C@@H](O)CO)cc12 [Example 389]	> 100 µM	> 100 µM	0.91 µM				
Nc1nc2cc(-n3cccn3)ccc2c2nn(CC(F)F)cc12 [Example 390]	> 100 µM	> 100 µM	0.35 µM				
Nc1nc2cc(-n3cccn3)ccc2c2nn(CCc3c[nH]cn3)cc12 [Example 391]	> 100 µM	> 100 µM	0.2 µM				
N#CCCCn1cc2c(N)nc3cc(-c4cc[nH]n4)ccc3c2n1 [Example 392]	> 100 µM	> 100 µM	0.08 µM				
Nc1nc2cc(-c3cc[nH]n3)ccc2c2nn([C@H]3CC[C@H](O)CC3)cc12 [Example 393]	> 100 µM	> 100 µM	1.73 µM				
Nc1nc2cc(-c3cc[nH]n3)ccc2c2nn([C@H]3CC[C@@H](O)CC3)cc12 [Example 394]	> 100 µM	> 100 µM	0.46 µM				
N#CCCn1cc2c(N)nc3cc(-c4cc[nH]n4)ccc3c2n1 [Example 395]				> 100 µM	> 100 µM	0.07 µM	
Nc1nc2cc(-c3cc[nH]n3)ccc2c2nn(CCO)cc12 [Example 396]				> 100 µM	> 100 µM	0.65 µM	
Nc1nc2cc(-c3cc[nH]n3)ccc2c2cn(CCOC(F)F)nc12 [Example 397]				> 100 µM	1 to 20 µM	0.34 µM	

The next lines start with the values.

EC50 ([1]; activity range class)	EC50 ([2]; activity range class)	EC50 [3, 4]	EC50 ([1]; activity range)	EC50 ([2]; activity range)	EC50 [3, 5]	EC50 ([3]; IL-1β production, human cells)	SMILES
			> 100 µM	> 100 µM	1.55 µM		Nc1nc2cc(-c3cc[nH]n3)ccc2c2cn(C[C@@H](O)CO)nc12 [Example 398]
			> 100 µM	> 100 µM	0.23 µM		C[C@H](CO)Cn1cc2c(n1)c(N)nc1cc(-c3cc[nH]n3)ccc12 [Example 399]
			> 100 µM	> 100 µM	1.22 µM		CC[C@@H](O)Cn1ncc2c(N)nc3cc(-c4cc[nH]n4)ccc3c21 [Example 400]
			> 100 µM	> 100 µM	2.66 µM		C[C@H](O)Cn1ncc2c(N)nc3cc(-c4cc[nH]n4)ccc3c21 [Example 401]
			> 100 µM	> 100 µM	3.78 µM		Nc1nc2cc(-c3cc[nH]n3)c(F)cc2c2c1cnn2CCO [Example 403]
			> 100 µM	> 100 µM	0.74 µM		Nc1nc2cc(-c3cc[nH]n3)c(F)cc2c2nn(CCO)cc12 [Example 404]
			> 100 µM	> 100 µM	0.69 µM		C[C@H](O)Cn1cc2c(N)nc3cc(-c4cc[nH]n4)c(F)cc3c2n1 [Example 405]
			> 100 µM	> 100 µM	0.45 µM		COCCn1cc2c(N)nc3cc(-c4cc[nH]n4)c(F)cc3c2n1 [Example 406]
			> 100 µM	> 100 µM		0.5 µM	CC(C)(CO)n1cc2c(N)nc3cc(-c4cc[nH]n4)ccc3c2n1 [Example 407, 2-(4-amino-7-(1H-pyrazol-3-yl)-2H-pyrazolo[4,3-c]quinolin-2-yl)-2-methylpropan-1-ol, TFA]
			> 100 µM	> 100 µM	1.94 µM		Nc1nc2cc(-c3cc[nH]n3)ccc2c2nn(Cc3cc(CO)no3)cc12 [Example 408]
			> 100 µM	> 100 µM	1.47 µM		Nc1nc2cc(-c3cc[nH]n3)ccc2c2nn(Cc3ccnc(CO)c3)cc12 [Example 409]
			> 100 µM	> 100 µM	0.33 µM		CC(C)(CCO)n1cc2c(N)nc3cc(-c4cc[nH]n4)ccc3c2n1 [Example 410, 3-(4-amino-7-(1H-pyrazol-3-yl)-2H-pyrazolo[4,3-c]quinolin-2-yl)-3-methylbutan-1-ol, TFA]
			> 100 µM	> 100 µM	0.64 µM		Nc1nc2cc(-c3ccn[nH]3)ccc2c2[nH]c(CN3CCOCC3)cc12 [Example 411, 2-[(morpholin-4-yl)methyl]-7-(1H-pyrazol-5-yl)-1H-pyrrolo[3,2-c]quinolin-4-amine]
			> 100 µM	> 100 µM	1.87 µM		Nc1nc2cc(-c3cc[nH]n3)ccc2c2[nH]c(CNC(=O)C3CCCO3)cc12 (stereo not drawn) [Example 412]
			> 100 µM	> 100 µM	1.92 µM		Nc1nc2cc(-c3cc[nH]n3)ccc2c2[nH]c(CNC(=O)C3CCCCO3)cc12 (stereo not drawn) [Example 413]
			> 100 µM	> 100 µM	2.8 µM		Nc1nc2cc(-c3cc[nH]n3)ccc2c2[nH]c(CCNC(=O)C3CCCO3)cc12 (stereo not drawn) [Example 414]
			> 100 µM	> 100 µM	1.89 µM		Nc1nc2cc(-c3cc[nH]n3)ccc2c2[nH]c(CCNC(=O)C3CCCCO3)cc12 (stereo not drawn) [Example 415]
			> 100 µM	> 100 µM	0.15 µM		Nc1nc2cc(-c3cc[nH]n3)ccc2c2[nH]c(CCNC(=O)c3cc(F)ccn3)cc12 [Example 416]
